Laboratory results taken from PubChem BioAssay AID248 (DTP/NCI, 2004).
“And” between values parts separate entries of the source, which are not always exact repeats. Equal entries are not always repeated. Inconclusive results and toxic doses are left out. Cut-off read from the data, not from the text of the source: active = T/C of 150% or more; inactive = T/C below 125%.

Test system: L1210 leukemia ip in BDF1 mice, survival T/C
Experiment: NCI In Vivo Anticancer Drug Screen. Data for tumor model L1210 Leukemia (intraperitoneal) in B6D2F1 (BDF1) mice
Conditions: endpoint: mean survival time, higher = longer survival
Procedure, shortened: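 Antitumor effect is assessed in tumor-bearing animals. Survival in the compound arm is compared with a vehicle-dosed control arm and expressed as their quotient.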

[1] = dose: 100.0 mg/kg/injection, schedule: Q01DX001 (ip), vehicle: carboxymethylcellulose (CMC)
[2] = dose: 200.0 mg/kg/injection, schedule: Q01DX001 (ip), vehicle: carboxymethylcellulose (CMC)
[3] = dose: 400.0 mg/kg/injection, schedule: Q01DX001 (ip), vehicle: carboxymethylcellulose (CMC)
[4] = dose: 100.0 mg/kg/injection, schedule: Q01DX001 (ip), vehicle: Klucel (hydroxypropylcellulose) (HPC)
[5] = dose: 100.0 mg/kg/injection, schedule: Q01DX009 (ip), vehicle: Klucel (hydroxypropylcellulose) (HPC)
[6] = dose: 200.0 mg/kg/injection, schedule: Q01DX001 (ip), vehicle: Klucel (hydroxypropylcellulose) (HPC)
[7] = dose: 200.0 mg/kg/injection, schedule: Q01DX009 (ip), vehicle: Klucel (hydroxypropylcellulose) (HPC)
[8] = dose: 400.0 mg/kg/injection, schedule: Q01DX009 (ip), vehicle: Klucel (hydroxypropylcellulose) (HPC)
[9] = dose: 100.0 mg/kg/injection, schedule: Q01DX009 (ip), vehicle: saline
[10] = dose: 200.0 mg/kg/injection, schedule: Q01DX009 (ip), vehicle: saline
[11] = dose: 100.0 mg/kg/injection, schedule: Q04DX003 (ip), vehicle: Klucel (hydroxypropylcellulose) (HPC)
[12] = dose: 200.0 mg/kg/injection, schedule: Q04DX003 (ip), vehicle: Klucel (hydroxypropylcellulose) (HPC)
[13] = dose: 400.0 mg/kg/injection, schedule: Q04DX003 (ip), vehicle: Klucel (hydroxypropylcellulose) (HPC)
[14] = dose: 25.0 mg/kg/injection, schedule: Q04DX003 (ip), vehicle: Klucel (hydroxypropylcellulose) (HPC)
[15] = dose: 50.0 mg/kg/injection, schedule: Q04DX003 (ip), vehicle: Klucel (hydroxypropylcellulose) (HPC)
[16] = dose: 100.0 mg/kg/injection, schedule: Q01DX001 (ip), vehicle: saline
[17] = dose: 200.0 mg/kg/injection, schedule: Q01DX001 (ip), vehicle: saline

Measured: T/C

CC(=O)OC1CCC2(C)C3=C(CCC2C1(C)C)C1(C)CCC(C(C)CCC2NC2(C)C)C1(C)CC3 (centres undefined)
inactive: dose: 100.0 mg/kg/injection, schedule: Q04DX003 (sc), vehicle: steriod suspending solution 105 % of control | dose: 200.0 mg/kg/injection, schedule: Q04DX003 (sc), vehicle: steriod suspending solution 101 % of control | dose: 400.0 mg/kg/injection, schedule: Q04DX003 (sc), vehicle: steriod suspending solution 105 % of control

CN(C)c1ccc(C(C#N)OC(=O)c2ccccc2)cc1 (centres undefined)
inactive: [1] 89 % of control | dose: 100.0 mg/kg/injection, schedule: Q01DX009 (ip), vehicle: carboxymethylcellulose (CMC) 93 % of control | dose: 100.0 mg/kg/injection, schedule: Q04DX002 (ip), vehicle: carboxymethylcellulose (CMC) 97 % of control | dose: 100.0 mg/kg/injection, schedule: Q04DX003 (ip), vehicle: carboxymethylcellulose (CMC) 100 % of control | [2] 94 % of control | dose: 200.0 mg/kg/injection, schedule: Q01DX009 (ip), vehicle: carboxymethylcellulose (CMC) 98 % of control and 90 % of control | dose: 200.0 mg/kg/injection, schedule: Q04DX002 (ip), vehicle: carboxymethylcellulose (CMC) 97 % of control | dose: 200.0 mg/kg/injection, schedule: Q04DX003 (ip), vehicle: carboxymethylcellulose (CMC) 89 % of control | [3] 91 % of control | dose: 400.0 mg/kg/injection, schedule: Q01DX009 (ip), vehicle: carboxymethylcellulose (CMC) 98 % of control and 86 % of control | dose: 400.0 mg/kg/injection, schedule: Q04DX002 (ip), vehicle: carboxymethylcellulose (CMC) 94 % of control | dose: 400.0 mg/kg/injection, schedule: Q04DX003 (ip), vehicle: carboxymethylcellulose (CMC) 94 % of control

N#Cc1ccc(/C=C/C(=O)c2ccccc2)cc1
inactive: [4] 95 % of control | [5] 96 % of control | [6] 88 % of control | [7] 93 % of control | [8] 89 % of control

OC(c1ccccc1)C(c1ccccc1)C1CO1 (centres undefined)
inactive: dose: 12.5 mg/kg/injection, schedule: Q01DX009 (ip), vehicle: DMSO 88 % of control | dose: 25.0 mg/kg/injection, schedule: Q01DX009 (ip), vehicle: DMSO 91 % of control | dose: 100.0 mg/kg/injection, schedule: Q04DX003 (ip), vehicle: other 103 % of control | dose: 200.0 mg/kg/injection, schedule: Q04DX003 (ip), vehicle: other 103 % of control | dose: 400.0 mg/kg/injection, schedule: Q04DX003 (ip), vehicle: other 94 % of control

O=[N+]([O-])c1cccc2cccc([N+](=O)[O-])c12
inactive: [9] 91 % of control | dose: 100.0 mg/kg/injection, schedule: Q04DX003 (ip), vehicle: saline 103 % of control | [10] 86 % of control | dose: 200.0 mg/kg/injection, schedule: Q04DX003 (ip), vehicle: saline 98 % of control | dose: 400.0 mg/kg/injection, schedule: Q04DX003 (ip), vehicle: saline 101 % of control

Cc1ccc(S(=O)(=O)NNC(=O)c2ccc(-c3ccc[nH]3)[nH]2)cc1
inactive: dose: 75.0 mg/kg/injection, schedule: Q01DX001 (ip), vehicle: saline 93 % of control | dose: 150.0 mg/kg/injection, schedule: Q01DX001 (ip), vehicle: saline 92 % of control | dose: 300.0 mg/kg/injection, schedule: Q01DX001 (ip), vehicle: saline 98 % of control

COc1cc(-c2ccc(N=Nc3nc4nc(N)nc(O)c4[nH]3)c(OC)c2)ccc1N=Nc1nc2nc(N)nc(O)c2[nH]1
inactive: [11] 97 % of control | [12] 100 % of control | [13] 97 % of control

CCC1C(=O)NC(=O)C1(C)c1ccccc1 (centres undefined)
inactive: dose: 25.0 mg/kg/injection, schedule: Q01DX009 (ip), vehicle: saline 115 % of control | [14] 120 % of control | dose: 50.0 mg/kg/injection, schedule: Q01DX009 (ip), vehicle: saline 103 % of control | [15] 101 % of control | [9] 98 % of control | [11] 101 % of control | [10] 110 % of control | [12] 93 % of control | dose: 400.0 mg/kg/injection, schedule: Q01DX009 (ip), vehicle: saline 86 % of control | [13] 104 % of control

Cc1cc(CCl)c(C)c(Br)c1C
inactive: dose: 6.25 mg/kg/injection, schedule: Q01DX009 (ip), vehicle: Klucel (hydroxypropylcellulose) (HPC) 95 % of control | dose: 12.5 mg/kg/injection, schedule: Q01DX009 (ip), vehicle: Klucel (hydroxypropylcellulose) (HPC) 90 % of control | dose: 25.0 mg/kg/injection, schedule: Q01DX009 (ip), vehicle: Klucel (hydroxypropylcellulose) (HPC) 89 % of control | dose: 50.0 mg/kg/injection, schedule: Q01DX009 (ip), vehicle: Klucel (hydroxypropylcellulose) (HPC) 92 % of control

CC(=O)NC1=C(NC(C)C)C(=O)c2ccccc2C1=O
inactive: dose: 12.5 mg/kg/injection, schedule: Q04DX003 (ip), vehicle: saline with Tween-80 94 % of control

NN1Cc2ccc3c4c(ccc(c24)C1)C=C3
inactive: dose: 15.0 mg/kg/injection, schedule: Q01DX001 (ip), vehicle: carboxymethylcellulose (CMC) 108 % of control | dose: 30.0 mg/kg/injection, schedule: Q01DX001 (ip), vehicle: carboxymethylcellulose (CMC) 97 % of control | dose: 60.0 mg/kg/injection, schedule: Q01DX001 (ip), vehicle: carboxymethylcellulose (CMC) 101 % of control

N#CCCOP(=O)(O)O
inactive: [4] 101 % of control | [6] 98 % of control | dose: 400.0 mg/kg/injection, schedule: Q01DX001 (ip), vehicle: Klucel (hydroxypropylcellulose) (HPC) 88 % of control

CCCCCCCCCCCCCCCCCCS(=O)(=O)CCCl
inactive: [14] 107 % of control | [15] 100 % of control | [11] 96 % of control | [12] 93 % of control | [13] 91 % of control

COC(=O)c1ccccc1NC(=S)NC(=O)c1ccc(OC)cc1
inactive: [5] 93 % of control | [11] 91 % of control | [7] 98 % of control | [12] 104 % of control | [8] 95 % of control | [13] 96 % of control

CCOC(=S)SCC(=O)c1ccc(Br)cc1
inactive: dose: 100.0 mg/kg/injection, schedule: Q04DX002 (ip), vehicle: Klucel (hydroxypropylcellulose) (HPC) 101 % of control | dose: 200.0 mg/kg/injection, schedule: Q04DX002 (ip), vehicle: Klucel (hydroxypropylcellulose) (HPC) 92 % of control | dose: 400.0 mg/kg/injection, schedule: Q04DX002 (ip), vehicle: Klucel (hydroxypropylcellulose) (HPC) 86 % of control

COC1(C(=O)OOC(C)(C)C)CC1(c1ccccc1)c1ccccc1 (centres undefined)
inactive: dose: 50.0 mg/kg/injection, schedule: Q01DX001 (ip), vehicle: Klucel (hydroxypropylcellulose) (HPC) 107 % of control | [4] 102 % of control | [6] 100 % of control

CN=C(c1ccc(NC(=O)c2ccc(C(=O)Nc3ccc(C(=NC)N(C)Cc4ccccc4)cc3)cc2)cc1)N(C)Cc1ccccc1
inactive: dose: 1.88 mg/kg/injection, schedule: Q01DX Z (ip), vehicle: saline 104 % of control | dose: 3.75 mg/kg/injection, schedule: Q01DX Z (ip), vehicle: saline 98 % of control | dose: 7.5 mg/kg/injection, schedule: Q01DX Z (ip), vehicle: saline 97 % of control

Nc1cc(Cl)cc2[nH]c(=O)c3cc(Cl)ccc3c12
inactive: [1] 100 % of control | [2] 102 % of control | [3] 95 % of control

Cc1c(/C=C/[N+](=O)[O-])cc(C)c2c3c(oc12)CCCC3
inactive: dose: 50.0 mg/kg/injection, schedule: Q01DX001 (ip), vehicle: saline 98 % of control | [16] 93 % of control | [17] 102 % of control

CCCCNC(=O)CSc1cc(Cl)c(Cl)cc1Cl
inactive: dose: 100.0 mg/kg/injection, schedule: Q01DX001 (ip), vehicle: saline with Tween-80 91 % of control | dose: 200.0 mg/kg/injection, schedule: Q01DX001 (ip), vehicle: saline with Tween-80 91 % of control | dose: 400.0 mg/kg/injection, schedule: Q01DX001 (ip), vehicle: saline with Tween-80 95 % of control

S=P(c1cccc2ccccc12)(c1cccc2ccccc12)c1cccc2ccccc12
inactive: [16] 97 % of control | [17] 95 % of control | dose: 400.0 mg/kg/injection, schedule: Q01DX001 (ip), vehicle: saline 95 % of control
